Measured values published in patent US7964598B2 (The J. David Gladstone Institutes, priority 1995, dated 2011).
Where “and” joins values, the source holds several entries; their conditions need not be identical. Equal values may be shown once. Entries after “also recorded” stand apart in the source; their conditions may differ.

How the values were obtained:
YFP-apoE4-CFP = target: T1, YFP-apoE4-CFP (Homo sapiens, UniProt P02649, C130R); experiment: Cell-based FRET assay, YFP-apoE4-CFP; conditions: 5-20 μM; for ratio of FRET to CFP emission in the cells expressing YFP-apoE4-CFP: intracellular; for ratio of FRET to CFP emission in media of YFP-apoE4-CFP cells: medium
T1 construct: vector signal peptide (pFLAG-CMV3) (N); FLAG (N); expressed in transfected cells
Text: (§1) Xu et al. (2004) J. Biol. Chem. 279:25511-25516. FRET—the non-radioactive transfer of photon energy from an excited fluorophore (donor) to another fluorophore (acceptor)—occurs only when the donor and acceptor are in close proximity (<100 Å). Thus, this approach can be used to measure nanometer scale distances.
(§2) Xu et al. (2004) J. Biol. Chem. 279:25511-25516. The constructs are depicted schematically in FIG. 29.
(§3) Since the emission spectrum of CFP (460-520 nm) overlaps with the excitation spectrum of YFP (480-520 nm), FLEXstation (Molecular Devices) can be used to measure FRET in living cells expressing YFP-apoE3-CFP or YFP-apoE4-CFP in a high throughput manner. […] Thus, the ratio of FRET to CFP emission in cells expressing YFP-apoE4-CFP is much higher than that in those expressing YFP-apoE3-CFP (FIG. 31). […] Since the FLEXstation can read FRET in both cells and the culture media treated without or with various small molecules, this assay allows one to know whether a small molecule affects apoE4 domain interaction only in the medium (“medium FRET”) or also inside the cell (“intracellular FRET”). In addition, after measurement of the intracellular FRET, the cells can be incubated further with MTT to determine the cytotoxicity of the compound. Thus, the cell-based FRET assay can simultaneously provide three sets of data-intracellular FRET, medium FRET, and cytotoxicity.
(§4) Quantifying FRET in Transfected Neuro-2a Cells—Stably transfected Neuro-2a cells expressing YFP-apoE3-CFP or YFP-apoE4-CFP at similar levels were selected by fluorescence activated cell sorter (FACS). YFP and CFP images of transfected cells were acquired with the Meta Detector, and their fluorescence intensities were analyzed with the mounted computer. The FRET signal was calculated as the ratio of YFP to CFP fluorescence intensity under CFP excitation. For each YFP-apoE-CFP construct, the FRET signal was measured in at least 12 cells from different fields.
(§5) Quantifying FRET in the Culture Medium—Neuro-2a cells stably expressing YFP-apoE3-CFP or YFP-apoE4-CFP and wildtype cells were grown in T175 flasks to 90% confluence and incubated with serum-free minimum essential medium containing N2 supplement for 24 h. The conditioned medium (20 ml/flask) was concentrated about 20-fold with Centriplus-YM-10 concentrators (Amicon, Bedford, Mass.), dialyzed against PBS, illuminated at the CFP excitation wavelength (430 nm), and scanned for emission spectrum. The FRET signal was calculated as the ratio of emission at 525 nm (YFP) to that at 475 nm (CFP). Conditioned medium from cells expressing apoE3-CFP or apoE4-CFP was used to determine baseline fluorescence in the absence of FRET.

Neuro-2a cells [1] = experiment: Aβ-induced lysosomal leakage (cytosolic β-hexosaminidase); assay type: cell-based, mouse
Experimental: The cytosolic fraction was obtained by ultracentrifugation, and the cytosolic β-hexosaminidase activity was measured.
Quantitation of the lysosomal enzyme β-hexosaminidase activity in the cytosol indicates lysosomal leakage. […] After incubation the cells were washed and cytosolic fractions were isolated as described in Materials and Methods. The enzymatic activity of β-hexosaminidase was assayed in 20 μg of cytosolic protein for each sample.
Lysosomal leakage was quantitated by assaying cytosolic 0-hexosaminidase activity. […] Conditioned media were prepared as described above. Apoptosis was quantitated by measuring DNA fragmentation.

YFP-apoE3-CFP = target: T2, YFP-apoE3-CFP (Homo sapiens, UniProt P02649); experiment: Cell-based FRET assay, YFP-apoE3-CFP; conditions: for ratio of FRET to CFP emission in cells expressing YFP-apoE3-CFP: intracellular; for ratio of FRET to CFP emission in media of YFP-apoE3-CFP cells: medium
T2 construct: vector signal peptide (pFLAG-CMV3) (N); FLAG (N); expressed in transfected cells
Text: as §1, §2, §3, §4, §5

YFP-apoE4-CFP cells = experiment: MTT cytotoxicity assay; assay type: cell-based, mouse; conditions: 5-10 μM
Text: as §3

Neuro-2a cells [2] = experiment: Aβ-induced apoptosis (DNA fragmentation assay); assay type: cell-based, mouse
Experimental: DNA Fragmentation Assay—DNA fragmentation of apoptotic cells was determined with Cell Death Detection ELISA kits (Roche, Indianapolis, Ind.).
FIG. 38. […] Control cells were not treated with Aβ1-42. Apoptotic cell death was measured with a DNA fragmentation assay. Values are the mean±S.D. of three separate experiments.
FIGS. 39A and 39B. […] Lysosomal leakage was quantitated by assaying cytosolic 0-hexosaminidase activity. […] Conditioned media were prepared as described above. Apoptosis was quantitated by measuring DNA fragmentation.

apoE4 = target: T3, apoE4 (Homo sapiens, UniProt P02649, C130R); experiment: Emulsion binding assay for domain interaction, apoE4
T3 construct: made in house
Experimental: (§6) Preparation of emulsion particles. Triolein (160 mg) and L-alpha-Phosphatidylcholine (40 mg) are combined and dried under nitrogen. After the addition of 8 mls of buffer (10 mM Tris, 100 mM KCl, 1 mM EDTA, pH 8.0), the mixture is sonicated in a water bath to obtain a heterogeneous mix of emulsion particles. The particles are harvested by ultracentrifugation (TLA 100.2 rotor, 30,000 rpm for 30 minutes) and the subsequent lipid cake is removed by tube slicing and resuspended in 100 μt 20 mM Phosphate Buffer (PB). Triolein and phospholipid content are measured and total emulsion particle concentration is determined.
(§7) Radiolabelling Freshly denatured and renatured Apolipoprotein E3 and E4 are radiolabelled using Bolton-Hunter Reagent [^125I] (ICN). Specific Activity is determined using Lowry method and Gamma 8000 counter.
(§8) Binding Affinity Assay. […] In glass tubes, 25 μg of protein (with iodinated tracer) was reduced with 1% β-mercaptoethanol. Two hundred and fifty μg of emulsion particles and 2.5 μl of compound (10 mM stock) were added and the final mixture was brought up to 250 μl with 20 mM phosphate buffer (PB). The reaction mixture was then incubated in a 37° C. water bath for 2 hours before being transferred to 1.5 ml ultracentrifuge tubes. Finally, 50 μl of 60% sucrose was mixed with the sample and 400 μl 20 mM PB was carefully layered on top. Using a TLA 100.2 rotor, the tube was spun at 30,000 rpm for 30 minutes and subsequently cut to separate the floating emulsion particle layer from the free protein at the bottom of the tube. These fractions were then combined with the respective half of the actual tube and counted using a Gamma-8000. […] Protein-only assays yielded 94.5-96.6% of protein accumulated in the bottom portion of the tube. In emulsion particle-only assays, 94% of emulsion particles accumulated in the top portion of the tube.
(§9) Preparation of Emulsion Particles and VLDL Binding Affinity Assay. VLDL-like emulsion particles were prepared using triolein (160 mg) and L-alpha-phosphatidylcholine (40 mg), as described. Dong and Weisgraber (1996) supra; and Dong et al. (1994) J. Biol. Chem. 269:22358-22365.

Water solubility = assay type: physicochemical
apoE3 [3] = target: T4, apoE3 (Homo sapiens, UniProt P02649); experiment: Emulsion binding assay, apoE3; conditions: follow-up assay
T4 construct: made in house
Experimental: as §6, §7, §8, §9

apoE3 [4] = experiment: Aβ production assay, B103-APP cells incubated with apoE3; assay type: cell-based, rat; conditions: FIG. 22
Experimental: Aβ production assay. Stable neuroblastoma B103 cell lines transfected with a wildtype hAPP cDNA construct (B 103-APP) were selected by growing them in Dulbecco's modified Eagle's medium (DMEM) containing 10% fetal calf serum (FBS) and 400 μg/ml G418. A cell line expressing APP at similar levels in mouse brains has been identified by RNase protection assay (RPA) and was used in the studies described below. To determine Aβ production, B103-APP cells were incubated with serum-free minimal essential medium (MEM) containing N2 supplements with or without apoE isoforms for 24 h at 37° C. After incubation, 50 μl of medium was collected and assayed for Aβ levels with an ELISA method. The cells were lysed, and cellular proteins were determined by the Lowry method. AP production was normalized to cellular protein.
Cell Culture. Rat neuroblastoma B103 cells stably expressing human wildtype APP (hAPP695wt) (Xu et al. ((1999) Proc. Natl. Acad. Sci. USA 96:7547-7552; Esposito, et al. (2004) J. Neurochem. 91:1260-1274) were generated in Dr. Lennart Mucke's laboratory at the Gladstone Institute of Neurological Disease and maintained in Dulbecco's modified Eagle's medium (DMEM) (GIBCO, Grand Island, N.Y.) containing 400 μg/ml G418, 10% fetal bovine serum, and 5% horse serum at 37° C. Twenty-four hours after plating into 48-well plates (1×10^5 cells per well), cells were washed twice with serum-free DMEM and cultured for another 24 h in DMEM containing 1% N-2 supplement (GIBCO) to induce differentiation. The cells were treated with either β-VLDL (25 μg/ml cholesterol), recombinant human apoE isoform-enriched β-VLDL (7.5 μg/ml apoE and 25 μg/ml cholesterol), or recombinant human apoE (7.5 μg/ml apoE) in fresh DMEM containing 1% N-2 supplement for an additional 24 h. In some experiments, RAP (25 nM or 1 μM) was added to the cells 1 h before apoE treatment.
Aβ Assay. Aβ secreted into the medium was detected with a sandwich enzyme-linked immunosorbent assay (ELISA), using mAb 266 as a capturing antibody and 3D6 as a detecting antibody, as described. Johnson-Wood et al. ((1997) Proc. Natl. Acad. Sci. USA 94:1550-1555). Aβ was quantified from a standard curve (Aβ42; Bachem, Torrance, Calif.) and normalized by total cellular protein.

B103 cells = experiment: Toxicity to B103 cells; assay type: cell-based, rat; conditions: at the micromole level
[5] = follow-up assay, second E4 control
[6] = initial assay, 2.5 μl of compound (10 mM stock) in 250 μl, 37° C. 2 hours, listed as 3-butyl-1-ethyl-5-(2-(3-sulfobutyl-benzo(1,3)oxazo, potassium salt))

T1 sequence (P02649 19-317 C130R): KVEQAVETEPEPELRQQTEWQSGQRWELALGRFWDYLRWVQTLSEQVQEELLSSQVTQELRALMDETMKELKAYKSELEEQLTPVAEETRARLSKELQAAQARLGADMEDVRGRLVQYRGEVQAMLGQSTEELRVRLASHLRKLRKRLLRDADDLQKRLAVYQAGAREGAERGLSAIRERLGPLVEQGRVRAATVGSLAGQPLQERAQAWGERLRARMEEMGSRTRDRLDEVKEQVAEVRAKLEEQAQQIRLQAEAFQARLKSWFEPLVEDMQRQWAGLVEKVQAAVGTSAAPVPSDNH
T3 sequence (P02649 19-317 C130R): as above
T2 sequence (P02649 19-317): as the sequence (P02649 19-317 C130R) above, with R112C counted along it
T4 sequence (P02649 19-317): as the sequence (P02649 19-317 C130R) above, with R112C counted along it

Structure (SMILES) | ratio of FRET to CFP emission in the cells expressing YFP-apoE4-CFP (YFP-apoE4-CFP) | ratio of FRET to CFP emission in media of YFP-apoE4-CFP cells (YFP-apoE4-CFP) | lysosomal leakage, cells with medium alone or medium containing apoE3 plus Aβ1-42 (Neuro-2a cells [1]) | apoE4 potentiation of Aβ-induced lysosomal leakage (Neuro-2a cells [1]; 5 μM, apoE4 conditioned medium, Aβ1-42 20 μM) | ratio of FRET to CFP emission in cells expressing YFP-apoE3-CFP (YFP-apoE3-CFP) | ratio of FRET to CFP emission in media of YFP-apoE3-CFP cells (YFP-apoE3-CFP) | cytotoxicity (MTT assay) (YFP-apoE4-CFP cells) | apoptosis, cells with medium alone or medium containing apoE3 plus Aβ1-42 (Neuro-2a cells [2]) | apoE4 potentiation of Aβ-induced apoptosis (Neuro-2a cells [2]; apoE4 conditioned medium, Aβ1-42) | E4 + cpd n = 3, % bound (apoE4; follow-up assay) [%] | E4 + cpd n = 3, % free (apoE4; follow-up assay) [%] | E4 control, % bound (apoE4; [5]) [%] | E4 control, % free (apoE4; [5]) [%] | E4 + cpd, % bound (apoE4; [6]) | E4 + cpd, % free (apoE4; [6]) | water solubility (Water solubility) | E3 + compound, % bound (apoE3 [3]) [%] | E3 + compound, % free (apoE3 [3]) [%] | effect on apoE3 (Aβ production) (apoE3 [4]) | toxicity to B103 cells (B103 cells)
CCN(CC)c1ccc(/N=N\c2cc(S(=O)(=O)O)cc3cc(S(=O)(=O)O)cc(O)c23)c(O)c1 [GIND-28] | decreased significantly | decreased significantly | no significant effect | block; also recorded: abolish | none of these compounds altered significantly | none of these compounds altered significantly | did not cause significant cytotoxicity | no significant effect | block; also recorded: abolish | – | – | – | – | – | – | – | – | – | – | –
CCCCN1C(=O)/C(=C/C=C2/Oc3ccccc3N2CCCCS(=O)(=O)[O-])N(CC)C1=S.[K+] [GIND-105] | – | – | no significant effect | – | – | – | did not cause significant cytotoxicity | no significant effect | – | 57 | 43 | 45 | 55 | 28% and 21% | 72% and 79% | water-soluble | 30 | 70 | no effect | no significant toxicity
Cc1cc(Cl)cc2sc(-c3sc4cc(Cl)cc(C)c4c3OS(=O)(=O)O)c(OS(=O)(=O)O)c12 [GIND-111] | decreased significantly | decreased significantly | – | – | none of these compounds altered significantly | none of these compounds altered significantly | did not cause significant cytotoxicity | – | – | – | – | – | – | – | – | – | – | – | – | –
